Source: patent publication US11464770B2, “Anticancer pharmaceutical composition” (NATIONAL CANCER CENTER, priority 2016, dated 2022)
Where two headings read alike, the source gives them in different places.

System: colorectal cancer cell lines (e.g. DLD-1, HCT 116, SW620, HCT-15, HCT-8, RKO)
Assay: Cell based assay, cell viability (CellTiter-Glo), colorectal cancer cell lines
Method in brief: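 Cells were trypsinized, seeded, and left 24 h before compound was added at 0 to 2 μM final. After a further 72 h of culture, viability was read by ATP-based luminescence.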

[1] = Homo sapiens, DLD-1, 72 hours treatment, read-out: IC50, colorectal cancer cell line DLD-1
[2] = Homo sapiens, HCT 116, 72 hours treatment, read-out: IC50, colorectal cancer cell line HCT 116
[3] = Homo sapiens, HCT-8, 72 hours treatment, read-out: IC50, colorectal cancer cell line HCT-8
[4] = Homo sapiens, HCT-15, 72 hours treatment, read-out: IC50, colorectal cancer cell line HCT-15
[5] = Homo sapiens, HT-29, 72 hours treatment, read-out: IC50, colorectal cancer cell line HT-29
[6] = Homo sapiens, LoVo, 72 hours treatment, read-out: IC50, colorectal cancer cell line LoVo
[7] = Homo sapiens, SW480, 72 hours treatment, read-out: IC50, colorectal cancer cell line SW480
[8] = Homo sapiens, SW-620, SW620, 72 hours treatment, read-out: IC50, colorectal cancer cell line SW620
[9] = RKO, 72 hours treatment, read-out: IC50, colorectal cancer cell line RKO
[10] = Homo sapiens, DLD-1 cells, 72 hours treatment, read-out: IC50, colorectal cancer cell line DLD-1
[11] = Homo sapiens, HCT 116 cells, 72 hours treatment, read-out: IC50, colorectal cancer cell line HCT 116
[12] = Homo sapiens, HCT-8 cells, 72 hours treatment, read-out: IC50, colorectal cancer cell line HCT-8
[13] = Homo sapiens, HCT-15 cells, 72 hours treatment, read-out: IC50, colorectal cancer cell line HCT-15
[14] = Homo sapiens, HT-29 cells, 72 hours treatment, read-out: IC50, colorectal cancer cell line HT-29
[15] = Homo sapiens, LoVo cells, 72 hours treatment, read-out: IC50, colorectal cancer cell line LoVo
[16] = Homo sapiens, RKO cells, 72 hours treatment, read-out: IC50, colorectal cancer cell line RKO
[17] = Homo sapiens, SW480 cells, 72 hours treatment, read-out: IC50, colorectal cancer cell line SW480
[18] = Homo sapiens, SW-620, SW620 cells, 72 hours treatment, read-out: IC50, colorectal cancer cell line SW620

| Compound | IC50 [1] [nM] | IC50 [2] [nM] | IC50 [3] [nM] | IC50 [4] [nM] | IC50 [5] [nM] | IC50 [6] [nM] | IC50 [7] [nM] | IC50 [8] [nM] | IC50 [9] [nM] | IC50 [10] [nM] | IC50 [11] [nM] | IC50 [12] [nM] | IC50 [13] [nM] | IC50 [14] [nM] | IC50 [15] [nM] | IC50 [16] [nM] | IC50 [17] [nM] | IC50 [18] [nM] |
| --- | --- | --- | --- | --- | --- | --- | --- | --- | --- | --- | --- | --- | --- | --- | --- | --- | --- | --- |
| CC(=O)c1c([S+]([O-])Cc2cc(F)cc(S(F)(F)(F)(F)F)c2)[nH]c2c(Br)ccc(Cl)c2c1=O (stereo not drawn) [Compound 76, 3-acetyl-8-bromo-5-chloro-2-((3-fluoro-5-(pentafluoro--sulfanyl)benzyl)sulfinyl)quinolin-4(1H)-one] | 1090 | 1570 | > 2000 | 1640 | > 10000 | > 2000 | > 2000 | > 2000 | 1520 | – | – | – | – | – | – | – | – | – |
| CC(=O)c1c([S+]([O-])Cc2c(F)c(F)c(F)c(F)c2F)[nH]c2c(Br)ccc(Cl)c2c1=O (stereo not drawn) [Compound 78, 3-acetyl-8-bromo-5-chloro-2-(((perfluorophenyl)methyl)sulfinyl)quinolin-4(1H)-one] | 1280 | 1930 | > 2000 | 1590 | > 10000 | > 2000 | > 2000 | 1760 | 1500 | – | – | – | – | – | – | – | – | – |
| CC(=O)c1c([S+]([O-])Cc2ccc(I)cc2)[nH]c2c(Cl)ccc(Cl)c2c1=O (stereo not drawn) [Compound 83, 3-acetyl-5,8-dichloro-2-((4-iodobenzyl)sulfinyl)quinolin-4(1H)-one] | – | – | – | – | – | – | – | – | – | 1380 | 1800 | 1880 | 1620 | > 10000 | > 2000 | 1030 | > 2000 | > 2000 |
| COC(=O)c1ccc(C[S+]([O-])c2[nH]c3c(Cl)ccc(Cl)c3c(=O)c2C(C)=O)o1 (stereo not drawn) [Compound 89, methyl 5-(((3-acetyl-5,8-dichloro-4-oxo-1,4-dihydroquinolin-2-yl)sulfinyl)methyl)furan-2-carboxylate] | – | – | – | – | – | – | – | – | – | 1640 | 1590 | > 2000 | > 2000 | > 10000 | > 2000 | 1720 | > 2000 | 1700 |

Results, then the molecule that gave them:

| IC50 [1] [nM] | IC50 [2] [nM] | IC50 [3] [nM] | IC50 [4] [nM] | IC50 [5] [nM] | IC50 [6] [nM] | IC50 [7] [nM] | IC50 [8] [nM] | IC50 [9] [nM] | IC50 [10] [nM] | IC50 [11] [nM] | IC50 [12] [nM] | IC50 [13] [nM] | IC50 [14] [nM] | IC50 [15] [nM] | IC50 [16] [nM] | IC50 [17] [nM] | IC50 [18] [nM] | Compound |
| --- | --- | --- | --- | --- | --- | --- | --- | --- | --- | --- | --- | --- | --- | --- | --- | --- | --- | --- |
| 880 | 1250 | 1780 | 1390 | > 10000 | > 2000 | 1660 | 1760 | 1320 | – | – | – | – | – | – | – | – | – | COc1cc(S(F)(F)(F)(F)F)ccc1C[S+]([O-])c1[nH]c2c(Br)ccc(Cl)c2c(=O)c1C(C)=O (stereo not drawn) [Compound 75, 3-acetyl-8-bromo-5-chloro-2-((2-methoxy-4-(pentafluoro--sulfanyl)benzyl)sulfinyl)quinolin-4(1H)-one] |
| – | – | – | – | – | – | – | – | – | 930 | 1160 | 1300 | 1510 | > 10000 | 1960 | 1270 | 1550 | 1230 | CC(=O)c1c([S+]([O-])Cc2cccnc2)[nH]c2c(Br)ccc(Cl)c2c1=O (stereo not drawn) [Compound 84, 3-acetyl-8-bromo-5-chloro-2-((pyridin-3-ylmethyl)sulfinyl)quinolin-4(1H)-one] |
| – | – | – | – | – | – | – | – | – | 1090 | 860 | 1110 | 1260 | > 10000 | 1150 | 890 | 1270 | 740 | Cc1cc(C[S+]([O-])c2[nH]c3c(Cl)ccc(Cl)c3c(=O)c2C(=O)C(C)C)no1 (stereo not drawn) [Compound 86, 5,8-dichloro-3-isobutyryl-2-(((5-methylisoxazol-3-yl)methyl)sulfinyl)quinolin-4(1H)-one] |
| – | – | – | – | – | – | – | – | – | 1130 | 760 | 810 | 1060 | > 10000 | 910 | 920 | 1190 | 640 | Cc1cc(C[S+]([O-])c2[nH]c3c(Br)ccc(Cl)c3c(=O)c2C(=O)C(C)C)no1 (stereo not drawn) [Compound 95, 8-bromo-5-chloro-3-isobutyryl-2-(((5-methylisoxazol-3-yl)methyl)sulfinyl)quinolin-4(1H)-one] |
